Assay results: patent EP0888055B1, “HERBICIDAL COMPOSITION AND METHOD OF WEED CONTROL” (Novartis AG, priority 1996, dated 1997)

Legend:
Sorghum bic. = test: Pre-emergence test (Example B2); type: in vivo, Sorghum bicolor; details: 1000 g active ingredient/ha, 41 days
Source text: (§1) The expected herbicidal action E for a given combination of two herbicides can be calculated as follows (see COLBY, S.R., "Calculating synergistic and antagonistic response of herbicide combinations", Weeds 15, pages 20-22, 1967): E = X +(Y • (100 - X))/(100) [formula]
(§2) In the above formula: X = percentage growth inhibition in the case of treatment with the compound of formula A at a rate of application of p kg per hectare compared with the untreated control (= 0 %). Y = percentage herbicidal action in the case of treatment with one of the mixing partners at a rate of application of q kg per hectare compared with the untreated control. E = Expected herbicidal action (percentage herbicidal action compared with the untreated control) after treatment with the compounds of formulae A and the mixing partners at a rate of application of p + q kg of active ingredient per hectare.
The test plants are sown in plastics pots in standard soil. Directly after sowing the test compounds are applied by spraying, separately or in admixture, in the form of an aqueous suspension of the test compounds (Formulation Example F8, c) and d)) or in the form of an emulsion concentrate (Formulation Example F1, d)) in 500 l of water/ha. […] After 34 days' (Tables B2 to B5) and 41 days' (Table B6) test duration, the test is evaluated (% action, 100 % = plants have died, 0 % = no phytotoxic action). […]

Maize = test: Pre-emergence test (Example B2), tolerance of useful plant; type: in vivo
Source text: (§3) The test plants are sown in plastics pots in standard soil. Directly after sowing the test compounds are applied by spraying, separately or in admixture, in the form of an aqueous suspension of the test compounds (Formulation Example F8, c) and d)) or in the form of an emulsion concentrate (Formulation Example F1, d)) in 500 l of water/ha. The rates of application conform to the optimum concentrations ascertained under field conditions and greenhouse conditions. The test plants are then cultivated in the greenhouse under optimum conditions. After 34 days' (Tables B2 to B5) and 41 days' (Table B6) test duration, the test is evaluated (% action, 100 % = plants have died, 0 % = no phytotoxic action). From 61 to 80 % (especially from 81 to 100 %) phytotoxicity indicates good to very good herbicidal action in weeds; from 0 to 15 % (especially from 0 to 5 %) phytotoxicity indicates good to very good tolerance in useful plants.

Abutilon = test: Pre-emergence test (Example B2); type: in vivo
Source text: as §1, §2, §3
(§4) Test plants: abutilon, bidens, euphorbia, ipomoea, sesbamia, xanthium, rottboellia, sida, Sorghum bicolor.

Sida = test: Pre-emergence test (Example B2); type: in vivo
Source text: as §1, §2, §3, §4

Ipomoea = test: Pre-emergence test (Example B2); type: in vivo; details: 1000 g active ingredient/ha
Source text: as §1, §2, §3, §4

Euphorbia = test: Pre-emergence test (Example B2); type: in vivo; details: 500 g active ingredient/ha
Source text: as §1, §2, §3, §4

Rottboellia = test: Pre-emergence test (Example B2); type: in vivo
Source text: as §1, §2, §3, §4

Sesbania = test: Pre-emergence test (Example B2); type: in vivo; details: 1000 g active ingredient/ha, 34 days
Source text: as §1, §2, §3, §4

Bidens = test: Pre-emergence test (Example B2); type: in vivo; details: 1000 g active ingredient/ha, 34 days
Source text: as §1, §2, §3, §4

Digitaria = test: Post-emergence test (Example B1); type: in vivo; details: 100 g active ingredient/ha, 24 days
Source text: as §1, §2
(§5) The test plant seeds are grown to the 4- to 6-leaf stage under greenhouse conditions in plastics pots. The culture substrate used is a standard soil. At the 4- to 6-leaf stage the herbicides are applied separately and in admixture to the test plants. The test compounds are applied in the form of an aqueous suspension (Formulation Example F8, c)) in 500 l of water/ha. The rates of application conform to the optimum concentrations ascertained under field conditions and greenhouse conditions. Evaluation of the tests is carried out after 24 days. The following linear scale is used as a measure (% action): • 100 % = plants have died • 50 % = moderate action • 0 % = no phytotoxic action (as untreated control).
(§6) Test plants: brachiaria, cyperus, digitaria, echinochloa, panicum.

Brachiaria = test: Post-emergence test (Example B1); type: in vivo; details: 24 days
Source text: as §1, §2, §5, §6

Echinochloa = test: Post-emergence test (Example B1); type: in vivo; details: 24 days
Source text: as §1, §2, §5, §6

Panicum = test: Post-emergence test (Example B1); type: in vivo; details: 100 g active ingredient/ha, 24 days
Source text: as §1, §2, §5, §6

[1] = 125 g active ingredient/ha, 41 days
[2] = 250 g active ingredient/ha, 41 days
[3] = 500 g active ingredient/ha, 41 days
[4] = 1000 g active ingredient/ha, 41 days
[5] = 250 g active ingredient/ha, 34 days
[6] = 500 g active ingredient/ha, 34 days
[7] = 1000 g active ingredient/ha, 34 days

## COCC(C)N(C(=O)CCl)c1c(C)csc1C (stereo not shown) [Dime, dimethenamid]
Sorghum bic.
  Herbicidal activity, Weed: Sorghum bic.: 80%
Maize; [1]
  Herbicidal activity, Useful plant: Maize: 0%
Maize; [2]
  Herbicidal activity, Useful plant: Maize: 0%
Maize; [3]
  Herbicidal activity, Useful plant: Maize: 0%
Maize; [4]
  Herbicidal activity, Useful plant: Maize: 20%
Abutilon; [2]
  Herbicidal activity, Weed: Abutilon: 10%
Sida; [2]
  Herbicidal activity, Weed: Sida: 40%
Sida; [3]
  Herbicidal activity, Weed: Sida: 85%
Sida; [4]
  Herbicidal activity, Weed: Sida: 95%
Ipomoea; 41 days
  Herbicidal activity, Weed: Ipomoea: 0%
Euphorbia; 41 days
  Herbicidal activity, Weed: Euphorbia: 30%
Rottboellia; [1]
  Herbicidal activity, Weed: Rottboellia: 20%

## CCc1cccc(C)c1N(C(=O)CCl)C(C)COC (racemic) [Met.rac., metolachlor]
Maize; [5]
  Herbicidal activity, Useful plant: Maize: 0%
Maize; [6]
  Herbicidal activity, Useful plant: Maize: 0%
Maize; [7]
  Herbicidal activity, Useful plant: Maize: 0%
Abutilon; [6]
  Herbicidal activity, Weed: Abutilon: 20%
Abutilon; [7]
  Herbicidal activity, Weed: Abutilon: 20%
Sida; [5]
  Herbicidal activity, Weed: Sida: 0%
Sida; [6]
  Herbicidal activity, Weed: Sida: 50%
Ipomoea; 34 days
  Herbicidal activity, Weed: Ipomoea: 0%
Euphorbia; 34 days
  Herbicidal activity, Weed: Euphorbia: 0%
Sesbania
  Herbicidal activity, Weed: Sesbania: 60%
Bidens
  Herbicidal activity, Weed: Bidens: 30%
Rottboellia; [7]
  Herbicidal activity, Weed: Rottboellia: 0%

## O=C(O)CNCP(=O)(O)O [Gly, glyphosate]
Digitaria
  Herbicidal activity, Weed: Digitaria: 25%
Brachiaria; 200 g active ingredient/ha
  Herbicidal activity, Weed: Brachiaria: 60%
Brachiaria; 300 g active ingredient/ha
  Herbicidal activity, Weed: Brachiaria: 70%
Brachiaria; 400 g active ingredient/ha
  Herbicidal activity, Weed: Brachiaria: 70%
Echinochloa; 200 g active ingredient/ha
  Herbicidal activity, Weed: Echinochloa: 0%
Echinochloa; 400 g active ingredient/ha
  Herbicidal activity, Weed: Echinochloa: 20%
Panicum
  Herbicidal activity, Weed: Panicum: 70%
